# From patent US20220087987A1, “A METHOD FOR TREATING SWI/SNF COMPLEX-DEFICIENT CANCERS COMPRISING GLUTATHIONE (GSH) METABOLIC PATHWAY INHIBITOR” (National Cancer Center, priority 2018, published 2022)
# Counter-ions that a name gives are not always drawn. Like-named read-outs stand apart in the source and are kept apart here. Peptide text beside a SMILES is read from it. * marks the point of attachment. Cbz = O=C(OCc1ccccc1)*; CH2Cl = ClC*; CH2F = FC*
# Assays:
# Format in all cases: cell-based, human
# [1] = Drug library screen, cell viability (CellTiter-Glo); set-up: key to Cell viability, WT: % viability relative to DMSO solvent-treated cells; settings: human; HCT116 ARID1A-WT; 10 μM for 5 days; relative to cells treated with solvent (DMSO); read-out: Cell viability, WT
# Description: (§1) ARID1A-WT and ARID1A-KO HCT116 cancer cells were used for screening assays. […] Cell viability was assessed after 5 days using the CellTiter-Glo Luminescent Cell Viability Assay (Promega). Luminescence was measured using an Envision Multi-label plate reader (PerkinElmer). The luminescence reading was used to determine the cell viability relative to that of cells treated with solvent (DMSO). Candidate compounds were considered if viability of ARID1A-KO cells was less than […] was more than 80%.
# ARID1A-KO HCT116 cells = experiment: as above; set-up: key to Cell viability, KO: % viability relative to DMSO solvent-treated cells; settings: for viability at 10 µM: Homo sapiens, HCT-116, 120 h, read-out: Cell viability, KO
# Description: as §1
# ARID1A-WT HCT116 cells = experiment: as above; set-up: key to Cell viability, WT: % viability relative to DMSO solvent-treated cells
# Description: as §1
# [2] = HCT116 ARID1A-KO, 10 μM for 5 days, relative to cells treated with solvent (DMSO)
# [3] = HCT116 ARID1A-WT, 10 μM for 5 days, relative to cells treated with solvent (DMSO)
Molecule,"Cell viability, WT (ARID1A-WT HCT116 cells; [3])","Cell viability, KO (ARID1A-KO HCT116 cells; [2])",other results
"C[C@H]1O[C@@H](n2cnc3c(N)ncnc32)C[C@@H]1O [2′,5′-dideoxyadenosine]",–,–,viability [1]: 198%; viability at 10 µM (ARID1A-KO HCT116 cells; [2]): 172%
Cc1ncc2ccccc2c1C#N [4-cyano-3-methylisoquinoline],–,–,"viability at 5 days, 10 μM [1]: 143%; viability at 10 µM (ARID1A-KO HCT116 cells; [2]): 164%"
CNc1ccc2oc(C[C@H]3O[C@@]4(CC[C@H]3C)O[C@H]([C@H](C)C(=O)c3ccc[nH]3)[C@H](C)C[C@H]4C)nc2c1C(=O)O [A23187],–,–,viability [1]: 6.25%; viability at 10 µM (ARID1A-KO HCT116 cells; [2]): 8.67%
CN(C)CC[C@H](CSc1ccccc1)Nc1ccc(S(=O)(=O)NC(=O)c2ccc(N3CCN(Cc4ccccc4-c4ccc(Cl)cc4)CC3)cc2)cc1[N+](=O)[O-] [ABT-737],–,–,"viability at 5 days, 10 μM [1]: 94.4%; viability at 10 µM (ARID1A-KO HCT116 cells; [2]): 89.5%"
"C[C@]1(c2nc3c(C(N)=O)cccc3[nH]2)CCCN1 [ABT-888 (Veliparib), Veliparib]",–,–,"viability at 5 days, 10 μM [1]: 62.7%; viability at 10 µM (ARID1A-KO HCT116 cells; [2]): 53.3%"
"CNCc1ccc(-c2[nH]c3cc(F)cc4c3c2CCNC4=O)cc1 [AG014699 (Rucaparib), Rucaparib]",–,–,"viability at 5 days, 10 μM [1]: 18.7%; viability at 10 µM (ARID1A-KO HCT116 cells; [2]): 16%"
CC[C@@]1(O)C[C@H](O[C@H]2C[C@H](N(C)C)[C@H](O[C@H]3C[C@H](O)[C@H](O[C@H]4CCC(=O)[C@H](C)O4)[C@H](C)O3)[C@H](C)O2)c2c(cc3c(c2O)C(=O)c2c(O)cccc2C3=O)[C@H]1C(=O)OC [Aclarubicin],–,–,viability [1]: 4.48%; viability at 10 µM (ARID1A-KO HCT116 cells; [2]): 5.53%
CCCCC[C@H](CC(=O)NO)C(=O)N[C@H](C(=O)N1CCC[C@H]1CO)C(C)C [Actinonin],–,–,"viability at 5 days, 10 μM [1]: 88.5%; viability at 10 µM (ARID1A-KO HCT116 cells; [2]): 103%"
CC(C)C[C@@H](N)[C@H](O)C(=O)N[C@H](C(=O)N[C@H](C(=O)N[C@@H](CC(=O)O)C(=O)O)C(C)C)C(C)C [Amastatin],–,–,"viability at 5 days, 10 μM [1]: 102%; viability at 10 µM (ARID1A-KO HCT116 cells; [2]): 110%"
N=C(N)NC(=O)c1nc(Cl)c(N)nc1N [Amiloride],–,–,"viability at 5 days, 10 μM [1]: 106%; viability at 10 µM (ARID1A-KO HCT116 cells; [2]): 113%"
CCC1(c2ccc(N)cc2)CCC(=O)NC1=O (stereo not drawn) [Aminoglutethimide],–,–,"viability at 5 days, 10 μM [1]: 108%; viability at 10 µM (ARID1A-KO HCT116 cells; [2]): 107%"
"N=C(N)NN [Aminoguanidine, HCl]",–,–,"viability at 5 days, 10 μM [1]: 188%; viability at 10 µM (ARID1A-KO HCT116 cells; [2]): 128%"
C[C@@]1(CO)[C@H](O)CC[C@@]2(C)[C@H]1CC[C@H]1C[C@@H]3C[C@@]12CC[C@]3(O)CO [Aphidicolin],–,–,"viability at 5 days, 10 μM [1]: 14%; viability at 10 µM (ARID1A-KO HCT116 cells; [2]): 11.9%"
CNC(=O)c1ccccc1Sc1ccc2c(/C=C/c3ccccn3)n[nH]c2c1 [Axitinib],–,–,"viability at 5 days, 10 μM [1]: 36.4%; viability at 10 µM (ARID1A-KO HCT116 cells; [2]): 42.6%"
COc1cc2nc(N3CCCN(C)CC3)nc(NC3CCN(Cc4ccccc4)CC3)c2cc1OC [BIX01294],–,–,"viability at 5 days, 10 μM [1]: 2.57%; viability at 10 µM (ARID1A-KO HCT116 cells; [2]): 4.49%"
Cc1ccc2nc(NCCN)c3ncc(C)n3c2c1 [BMS-345541],–,–,"viability at 5 days, 10 μM [1]: 11.9%; viability at 10 µM (ARID1A-KO HCT116 cells; [2]): 19.7%"
"NC(=O)c1ccc(I)c([N+](=O)[O-])c1 [BSI-201 (Iniparib), Iniparib]",–,–,"viability at 5 days, 10 μM [1]: 63.5%; viability at 10 µM (ARID1A-KO HCT116 cells; [2]): 93.3%"
C[S+]([O-])c1ccc(-c2nc(-c3ccc(F)cc3)c(-c3ccncc3)[nH]2)cc1 (stereo not drawn) [SB 203580],163.1226,176.0802,–
O=C1NC(=O)c2c1c1c3ccccc3n3c1c1c2c2ccccc2n1C1CCC3O1 [SB 218078],101.994,109.2807,–
O=C(Nc1ccc([N+](=O)[O-])cc1O)Nc1ccccc1Br [SB 225002],5.2146,8.056,–

Molecule,"Cell viability, WT (ARID1A-WT HCT116 cells; [3])","Cell viability, KO (ARID1A-KO HCT116 cells; [2])",other results
COC(=O)[C@H](Cc1ccc([N+](=O)[O-])cc1)NC(=O)c1cccc2ccccc12 [SB 328437],104.1947,112.6489,–
NC(=O)c1ccc(-c2nc(-c3ccccn3)c(-c3ccc4c(c3)OCO4)[nH]2)cc1 [SB 431542],85.04,85.02,–
Fc1ccc(Cl)cc1-c1nc(Nc2ccncc2)c2nccnc2n1 [SD208],73.72,78.9,–
NC(=O)C1CCCc2c1[nH]c1ccc(Cl)cc21 (stereo not drawn) [SIRT1 inhibitor III],92.15,98.94,–
CC(C)c1cc(/C=C(\C#N)C(=O)NCCCc2ccccc2)cc(C(C)C)c1O [SU1498],165.2374,119.3751,–
O=CN1CCN(c2ccc(/C=C3\C(=O)Nc4ccccc43)cc2)CC1 [SU4984],129.369,172.2779,–
Cc1c[nH]c(/C=C2\C(=O)Nc3ccccc32)c1CCC(=O)O [SU5402],110.6763,139.2404,–
CN(C)S(=O)(=O)c1ccc2c(c1)/C(=C/c1cc3c([nH]1)CCCC3)C(=O)N2 [SU6656],–,–,"Cell viability, WT (ARID1A-WT HCT116 cells): 124.1846; Cell viability, KO (ARID1A-KO HCT116 cells): 170.9958"
Cc1[nH]c(/C=C2\C(=O)Nc3ccc(S(=O)(=O)N(C)c4cccc(Cl)c4)cc32)c(C)c1C(=O)N1CCN(C)CC1 [SU11274],71.94,82.98,–
CCN(CC)CCNC(=O)c1c(C)[nH]c(/C=C2\C(=O)Nc3ccc(Cl)cc32)c1C [SU11652],4.735,8.987,–
Cn1cc(/C=C2\C(=O)Nc3ccc(S(N)(=O)=O)cc32)c2ccccc21 [Syk inhibitor],–,–,"Cell viability, WT (ARID1A-WT HCT116 cells): 58.62; Cell viability, KO (ARID1A-KO HCT116 cells): 91.09"
Brc1c(Br)c(Br)c2n[nH]nc2c1Br [TBB],187.1148,147.5332,–
CCN1/C(=C/C(C)=O)Sc2ccc(OC)cc21 [TG003],115.1966,138.6968,–
Cc1cccc(-c2[nH]ncc2-c2ccc3ncccc3n2)n1 [TGF-b RI kinase inhibitor II],90.9,104.5326,–
C[n+]1ccc(-c2c3nc(c(-c4cc[n+](C)cc4)c4ccc([nH]4)c(-c4cc[n+](C)cc4)c4ccc([nH]4)c(-c4cc[n+](C)cc4)c4nc2C=C4)C=C3)cc1 [TMPyP4],19.35,32.37,–
CCCCCCCCCCCCCCOc1ccc(C(=O)O)o1 [TOFA],75.72,74.56,–
Nc1cccc(-c2cc3c(Oc4cccc(O)c4)ncnc3[nH]2)c1 [TWS119],–,–,"Cell viability, WT (ARID1A-WT HCT116 cells): 30.07; Cell viability, KO (ARID1A-KO HCT116 cells): 23.39"
Cc1cc(C=C2C(=O)C=CC2=O)cc(C)c1O [TX-1918],117.0659,173.7673,–
CN(C)CCCCC(=O)Nc1ccc(NC(=S)NC(=O)c2ccc(C(C)(C)C)cc2)cc1 [Tenovin-6],2.514,5.579,–
O=C(NCc1ccccc1)c1csc(Nc2ccncn2)n1 [Thiazovivin],50.22,30.49,–

Molecule,"Cell viability, WT (ARID1A-WT HCT116 cells; [3])","Cell viability, KO (ARID1A-KO HCT116 cells; [2])",other results
CC(C)n1nc(-c2cc3cc(O)ccc3[nH]2)c2c(N)ncnc21 [Torkinib],8.777,9.988,–
CC(/C=C/C(=O)NO)=C\[C@@H](C)C(=O)c1ccc(N(C)C)cc1 [Trichostatin A],6.352,5,–
CCOC(=O)c1c(C)[nH]c(/C=C2\C(=O)Nc3ccccc32)c1C [VEGF recptor 2 kinase inhibitor I],106.2493,109.4563,–
CC(C)C[C@H](NC(=O)CNC(=O)OCc1ccccc1)C(=O)N[C@@H](Cc1ccccc1)C(=O)CCl [Z-GLF-CMK] (Cbz-Gly-Leu-Phe-CH2Cl),4.255,4.8907,–
COC(=O)C[C@H](NC(=O)[C@H](C)NC(=O)[C@@H](NC(=O)OCc1ccccc1)C(C)C)C(=O)CF [Z-VAD-FMK] (Cbz-Val-Ala-Asp(OMe)-CH2F),177.3841,128.7264,–
Cc1ccc(NC(=O)c2cccc(N(C)C)c2)cc1NC(=O)c1ccc(O)cc1 [ZM 336372],121.6939,179.4192,–
C[C@H]1CCC/C=C/[C@@H]2C[C@H](O)C[C@H]2[C@H](O)/C=C/C(=O)O1 [brefeldin A],1.838,4.578,–
c1cc(-c2cnn3cc(-c4ccc(OCCN5CCCCC5)cc4)cnc23)ccn1 [compound C],6.447,9.381,–
Akt Inhibitor IV,3.276,5.523,–
Antimycin A1,4.328,7.111,–
Bleomycin sulfate,27.28,30.2,–
Cytostatin,10.14,7.493,–
GSK-3 inhibitor IX,105.4779,147.7846,–
MEK inhibitor I,77.6,117.4589,–
"Tamoxifen, citrate",24.8,18.66,–
Tunicamycin,4.6969,6.011,–
Valeryl salicylate,169.5428,118.3391,–
a-Amanitin,8.977,10.21,–
b-Rubromycin,88.7,93.87,–
indirubin-3′-monoxime,105.9954,124.9767,–
